From patent US20200308165A1, “Compounds as Ras Inhibitors and Use Thereof” (D.E. Shaw Research, LLC, priority 2017, published 2020)

How the values were obtained:
Ras protein = Ras protein (Homo sapiens, UniProt P01116); experiment: GDPx_Icagen_IC50: SOS1-mediated guanine nucleotide exchange rate of Ras (mant-GDP); assay type: biochemical; settings: SOS1-initiated exchange
Excerpt: (§1) In some embodiments, the IC50 assay measures the reduction effect of a given compound on the guanine nucleotide-echange rate of Ras protein in the presence of guanine nucleotide exchange protein SOS1, which is a Ras activator. In the assay GDP-loaded Ras was first prepared in a buffer containing the compound at certain concentration and fluorescent guanine nucleotide (mant-GDP (used in Icagene assay) or mant-GTP (used in other IC50 assays). The guanine nucleotide exchange was initiated by the addition of the SOS1 and its rate was reflected in the rate of fluorescence change as a function of time, which was monitored by a reader. The experiment was repeated at different compound concentrations and the IC50 of the compound was defined as the compound concentration at which half of its maximal reduction effect on the guanine nucleotide exchange rate is achieved. In other embodiments, other Ras activator proteins may be used. Non-limiting examples of other Ras activator proteins include RasGRP (Ras guanyl-releasing protein).
Example 17. Evaluation of Biological Activities: GDPx_Icagen_ICso
as §1, with “The IC50” for “In some embodiments, the IC50”, “guanine nucleotide-exchange” for “guanine nucleotide-echange”, “Ras is” for “Ras was”, “nucleotide (mant-GDP).” for “nucleotide (mant-GDP (used in Icagene assay) or mant-GTP (used in other IC50 assays).”, “achieved.” for “achieved. In other embodiments, other Ras activator proteins may be used. Non-limiting examples of other Ras activator proteins include RasGRP (Ras guanyl-releasing protein).”

KRAS4B (wild type) = target: T1, KRAS4B (wild type) (Homo sapiens, UniProt P01116); experiment: K-Ras Nucleotide Exchange Assay-384 (SOS Exchange Assay by Cytoskeleton, GTPx_Cyt_IC50); assay type: biochemical; settings: 1 μM KRAS4B, 0.05 μM SOS1, 1.5 μM mant-GDP
T1 construct: purchased Cytoskeleton CS-RS03 (K-Ras4B); CS-SOS1-A (SOS1)
T1 sequence (P01116 1-188 isoform P01116-2): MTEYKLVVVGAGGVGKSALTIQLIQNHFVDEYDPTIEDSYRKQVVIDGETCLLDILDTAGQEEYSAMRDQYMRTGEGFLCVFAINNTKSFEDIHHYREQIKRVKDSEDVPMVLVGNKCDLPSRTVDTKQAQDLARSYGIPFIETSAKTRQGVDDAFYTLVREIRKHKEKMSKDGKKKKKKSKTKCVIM
Protocol: Example 16. Evaluation of Biological Activities: K-Ras Nucleotide Exchange Assay-384 (SOS Exchange Assay by Cytoskeleton (GTPx_Cyt_IC50))
This assay is used to evaluate inhibitors of K-ras, by monitoring the inhibition of nucleotide exchange over time, in the presence of the protein SOS.
384-well black, untreated plates (Corning 3820 with NBS or 3821 untreated) were used. K-Ras4B Protein was used, which is wild-type (Cytoskeleton #CS-RS03) with a concnetration of 5 mg/ml, or 200 μM. Human SOS1 Protein, Exchange Domain 564-1049 (Cytoskeleton # CS-SOS1-A) was used in a concentration of 3.03 mg/ml or 50 μM. Mant-GDP triethylammonium salt solution was purchased from Sigma (catalog No. 69244). 1M stock solution of Hepes was purchased from Sigma (catalog No. H9897). 1M stock solution of MgCl2 was purchased from Sigma (catalog No. M4880). CHAPS, 3% was purchased from Sigma (catalog No. C5070). Nonidet P40 was purchased from Sigma. KOH pellets were purchased from Sigma.
K-ras buffer containing 40 mM Hepes, 10 mM MgCl2, 0.05% CHAPS, 0.01% NP40 with a pH 7.5 was prepared as follows: to a Buffer base containing 4 ml 1M Hepes, 1 ml MgCl2,
93.3 ml d-H2O, pH 7.5 (with KOH pellets), 1.7 ml 3% CHAPS was added, followed by the addition of 1 ml 1% NP40.
Final Conditions of the method included 1 μM KRAS4B (wild type), 0.05 μM SOS1, 1.5 μM mant-GDP. Reagent Preparation included: thawing aliquots of KRAS, SOS, and mant-GDP; preparing 3x KRAS (3 uM) in assay buffer; preparing 3x SOS/mant-GDP (150 nM/4.5 uM) in assay buffer; and preparing 3x compounds in assay buffer.
Assay Procedure (1536) used 3.3 μl, 3x Kras, 3.3 μl 3x compound with preincubate 0 hour, and […] 3x SOS/mant-GDP. A kinetic read measuring fluorescence at 360_450 was performed for 30 min at 30 second intervals.
Reference compound SCH 54292 (reversible inhibitor) at about 100 μM was used with no preincubation. Reagents were only stable for 45 min on ice, and therefore were prepared fresh before each assay. Partial plates (up to 9 columns) were run at a time to minimize effects due to the amount of time it takes to read a whole plate. SOS/mant-GDP were added with an automated pipettor to initiate all reactions at the same time. Assay was typically performed at 0.5% solution in DMSO (compounds prepared in 1.5% DMSO initially).
Clariostar Settings were as follows. Test Name was Kras Kinetic 360-450. Basic settings of the test included Measurement type as Fluorescence (FI), and Microplate name as Corning 3820. Plate mode settings included 61 cycles, 30 second cycle time, and 10 flashes per well. Optic settings were as follows. Excitation wavelength was 360 nm. Emission wavelength was 450 nM. Excitation bandwidth was 12 nm. Emission bandwidth was 12 nm. Dichroic filter 405 was used. D6 Well(s) was used for gain adjustment. No shaking was used. General settings were as follows. Top optic was used. Settling time was 0.1 second. Reading direction was bidirectional, horizontal left to right, and bottom to top. The target temperature was 25° C.

Sequence of Ras protein (P01116 1-188 isoform P01116-2): as above

Row | SMILES | IC50 (Ras protein) [µM] | IC50 (KRAS4B (wild type)) [µM]
1 | NC(=O)c1ccc(SCc2cc(=O)n(-c3nc4ccccc4[nH]3)[nH]2)cc1 [Compound 178, 4-(((1-(1H-benzo[d]imidazol-2-yl)-5-oxo-2,5-dihydro-1H-pyrazol-3-yl)methyl)thio)benzamide] | 0.32 | 
2 | Cc1cc(C)nc(CSCc2cc(=O)n(-c3nc4ccccc4[nH]3)[nH]2)n1 [Compound 164, 2-(1H-benzo[d]imidazol-2-yl)-5-((((4,6-dimethylpyrimidin-2-yl)methyl)thio)methyl)-1,2-dihydro-3H-pyrazol-3-one] | 22 | 0.63
3 | NC(=O)c1cccc(SCc2cc(=O)n(-c3nc4ccccc4[nH]3)[nH]2)c1 [Compound 159, 3-(((1-(1H-benzo[d]imidazol-2-yl)-5-oxo-2,5-dihydro-1H-pyrazol-3-yl)methyl)thio)benzamide] | 0.5 | 1
4 | Cn1c(-n2[nH]c(CSc3ccccc3)cc2=O)nc2ccccc21 [Compound 170, 2-(1-methyl-1H-benzo[d]imidazol-2-yl)-5-((phenylthio)methyl)-1,2-dihydro-3H-pyrazol-3-one] | 11.9 | 6.1
5 | O=c1cc(CSc2ccc(Br)cn2)[nH]n1-c1nc2ccccc2[nH]1 [Compound 158, 2-(1H-benzo[d]imidazol-2-yl)-5-(((5-bromopyridin-2-yl)thio)methyl)-1,2-dihydro-3H-pyrazol-3-one] | 0.2 | 0.53
6 | Cc1ccc(-n2[nH]c(CSc3ccccc3)cc2=O)nc1 [Compound 140, 2-(5-methylpyridin-2-yl)-5-((phenylthio)methyl)-1H-pyrazol-3(2H)-one] | 1.6 | 30.8
7 | O=c1cc(CSc2ccc(Cl)cc2)[nH]n1-c1nc2ccccc2[nH]1 [Compound 183, 2-(1H-benzo[d]imidazol-2-yl)-5-(((4-chlorophenyl)thio)methyl)-1,2-dihydro-3H-pyrazol-3-one] | 0.2 | 300
8 | O=c1cc(CSc2ccccn2)[nH]n1-c1nc2ccccc2s1 [Compound 185, 2-(benzo[d]thiazol-2-yl)-5-((pyridin-2-ylthio)methyl)-1,2-dihydro-3H-pyrazol-3-one] | 5.9 | 340
9 | CCc1csc(SCc2cc(=O)n(-c3nc4ccccc4[nH]3)[nH]2)n1 [Compound 139, 2-(1H-benzo[d]imidazol-2-yl)-5-(((4-ethylthiazol-2-yl)thio)methyl)-1H-pyrazol-3(2H)-one] | 0.05 | 
10 | O=c1cc(CSc2nc(Cc3ccccc3)cs2)[nH]n1-c1nc2ccccc2[nH]1 [Compound 180, 2-(1H-benzo[d]imidazol-2-yl)-5-(((4-benzylthiazol-2-yl)thio)methyl)-1,2-dihydro-3H-pyrazol-3-one] | 0.2 | 
11 | N#Cc1cccc(SCc2cc(=O)n(-c3nc4ccccc4[nH]3)[nH]2)c1 [Compound 173, 3-(((1-(1H-benzo[d]imidazol-2-yl)-5-oxo-2,5-dihydro-1H-pyrazol-3-yl)methyl)thio)benzonitrile] | 0.5 | 100
12 | O=c1cc(CSc2ccc(Br)cn2)[nH]n1-c1ccccn1 [Compound 160, 5-(((5-bromopyridin-2-yl)thio)methyl)-2-(pyridin-2-yl)-1,2-dihydro-3H-pyrazol-3-one] |  | 7.4
13 | O=c1cc(CSc2ccccc2)[nH]n1-c1cc(Br)ccn1 [Compound 176, 2-(4-bromopyridin-2-yl)-5-((phenylthio)methyl)-1,2-dihydro-3H-pyrazol-3-one] | 6 | 
14 | O=c1cc(CSc2ccncc2)[nH]n1-c1nc2ccccc2[nH]1 [Compound 168, 2-(1H-benzo[d]imidazol-2-yl)-5-((pyridin-4-ylthio)methyl)-1,2-dihydro-3H-pyrazol-3-one] | 2.3 | 7
15 | Cc1cc(C)nc(SCc2cc(=O)n(-c3nc4ccccc4s3)[nH]2)n1 [Compound 184, 2-(benzo[d]thiazol-2-yl)-5-(((4,6-dimethylpyrimidin-2-yl)thio)methyl)-1,2-dihydro-3H-pyrazol-3-one] | 5.8 | 13.6
16 | O=c1cc(CSc2nccc(C(F)(F)F)n2)[nH]n1-c1nc2ccccc2[nH]1 [Compound 149, 2-(1H-benzo[d]imidazol-2-yl)-5-(((4-(trifluoromethyl)pyrimidin-2-yl)thio)methyl)-1,2-dihydro-3H-pyrazol-3-one] | 0.3 | 0.41
17 | COc1cccc(SCc2cc(=O)n(-c3nc4ccccc4[nH]3)[nH]2)c1 [Compound 150, 2-(1H-benzo[d]imidazol-2-yl)-5-(((3-methoxyphenyl)thio)methyl)-1,2-dihydro-3H-pyrazol-3-one] | 0.2 | 0.98
18 | O=c1cc(CSc2nc3cccnc3s2)[nH]n1-c1nc2ccccc2[nH]1 [Compound 177, 2-(1H-benzo[d]imidazol-2-yl)-5-((thiazolo[5,4-b]pyridin-2-ylthio)methyl)-1,2-dihydro-3H-pyrazol-3-one] | 0.4 | 
19 | O=c1cc(CSc2cccnc2)[nH]n1-c1nc2ccccc2[nH]1 [Compound 181, 2-(1H-benzo[d]imidazol-2-yl)-5-((pyridin-3-ylthio)methyl)-1,2-dihydro-3H-pyrazol-3-one] | 2.5 | 
20 | O=c1cc(CSc2ccccc2)[nH]n1-c1ncc[nH]1 [Compound 179, 2-(1H-imidazol-2-yl)-5-((phenylthio)methyl)-1,2-dihydro-3H-pyrazol-3-one] | 4.5 | 
21 | Cc1cc(C)nc(SCc2cc(=O)n(-c3ccc(C(F)(F)F)cn3)[nH]2)n1 [Compound 157, 5-(((4,6-dimethylpyrimidin-2-yl)thio)methyl)-2-(5-(trifluoromethyl)pyridin-2-yl)-1,2-dihydro-3H-pyrazol-3-one] |  | 17.6
22 | Cc1cc(C)nc(SCc2cc(=O)n(-c3nc4ccc(Br)cc4s3)[nH]2)n1 [Compound 155, 2-(6-bromobenzo[d]thiazol-2-yl)-5-(((4,6-dimethylpyrimidin-2-yl)thio)methyl)-1,2-dihydro-3H-pyrazol-3-one] |  | 12.8
23 | Cc1csc(SCc2cc(=O)n(-c3ccccn3)[nH]2)n1 [Compound 182, 5-(((4-methylthiazol-2-yl)thio)methyl)-2-(pyridin-2-yl)-1,2-dihydro-3H-pyrazol-3-one] | 3.2 | 
24 | O=c1cc(CSCc2ccc(F)cc2)[nH]n1-c1ccccn1 [Compound 161, 5-(((4-fluorobenzyl)thio)methyl)-2-(pyridin-2-yl)-1,2-dihydro-3H-pyrazol-3-one] |  | 2.7
25 | O=c1cc(CSc2cc(Cl)cc(Cl)c2)[nH]n1-c1nc2ccccc2[nH]1 [Compound 175, 2-(1H-benzo[d]imidazol-2-yl)-5-(((3,5-dichlorophenyl)thio)methyl)-1,2-dihydro-3H-pyrazol-3-one] | 0.063 | 
